How the values were obtained:
[1] = system: DGAT; experiment: Assay for inhibitory effect on DGAT in cell (intracellular triglyceride production from [14C]acetate in HepG2 cells); format: cell-based, human; conditions: for Production Yield of Triglyceride (%): final level 10 μM, DMSO control given as 100
Description: The effect of the benzazole derivatives of Chemical Formula 1 in accordance with the present invention on DGAT was examined with HepG2 cells, hepatic cells derived from the human liver, as follows.
HepG2 cells, purchased from ATCC, were cultured in Eagle's minimum essential medium (MEM), 2 mM L-glutamine, with Earle's balanced salt solution (BSS) adjusted to contain, 1.5 g/L sodium bicarbonate, 0.1 mM non-essential amino acids and 1 mM sodium pyruvate, supplemented with 10% fetal bovine serum (FBS) and 1% antibiotics (100 U/ml penicillin and 100 µg/ml streptomycin) at 37° C. in a 5% CO2 incubator.
Intracellular DGAT activity was represented by the amount of triglycerides produced in the cultured HepG2 cells while the compounds (4, 8, 10, 22, 24, 25, 26, 39 and 31) of Chemical Formula 1 were assayed for inhibitory activity against DGAT by measuring the change in intracellular triglyceride production after the addition thereof.
Cells were plated at a density of 1×10^6 cell/ml per well into 24-well plates and incubated for 24 hours. Then, the medium was exchanged with FBS-free MEM and pre-treated with samples for 1 hour. Thereafter, 0.2 mCi of [^14C]acetate (Amersham) was added as a substrate to the cells, followed by incubation for 1 hour. The production of triglyceride was catalyzed by DGAT so that DGAT activity was determined by the amount of the triglyceride product, which could be measured by radioactivity. For use, the samples were dissolved in dimethyl sulfoxide (DMSO). In a control, triglycerides were synthesized using DMSO without any sample, with the production yield thereof given as 100.
The amount of the glyceride products synthesized was determined as follows. After completion of synthesis, the cells were suspended in PBS (phosphate-buffer-saline) to remove the substrate [^14C]acetate, whether unabsorbed into the cells or remaining unreacted, and total lipids, including triglycerides, were extracted twice for 30 min with 0.5 ml of an extraction solvent mixture (hexane:isopropanol=3:2, v:v). 1 ml of the extract was concentrated with nitrogen gas.
The total lipid residue thus formed was dissolved in an organic solvent mixture (chloroform:methanol=2:1) and loaded dropwise onto a thin layer chromatography plate (TLC; silica gel 60F254, 0.5 mm, Merck) using a mixture of 80:20:1 hexane:diethylether:acetic acid (v:v:v) as a developing solvent. After the separation of triglycerides (Rf value: 0.4) on TLC, the plate was brought into contact with an autoradiographic film for three hours, followed by image analysis (BAS-1500, Fuji Photo Film Co. Ltd.) to determine the [^14C] radioactivity of the triglycerides. The cells left after the extraction were suspended in 0.3 ml of a 0.1 N sodium hydroxide solution to measure the cellular protein concentration thereof.
The empirical values were obtained by dividing triglyceride radioactivity by protein level, with correction for experimental errors between test groups.

[2] = system: DGAT; experiment: Assay for inhibitory activity against DGAT ([14C]triacylglycerol formation, rat microsomal protein); format: biochemical; conditions: rat microsomal protein as enzyme source
Text: The derivatives of Chemical Formula 1 in accordance with the present invention are found to inhibit the enzymatic activity of DGAT at a dose-dependent manner (refer to Table 2 and FIG. 1) as measured in a test in which [^14C]triacylglycerol was quantitatively analyzed after enzymatic reaction between 1,2-diacylglycerol and [^14C]palmitoyl-CoA, with microsomal proteins from rats serving as an enzyme source (refer to Example 1).
After enzymatic reaction between two substrates 1,2-diacylglycerol (Sigma, D0138) and [^14C]palmitoyl-CoA (Amersham, CFA583) with the microsomal protein of rat serving as an enzyme source in accordance with Coleman et al, Methods Enzymol., 98-103, 1992, the resulting product [^14C] triacylglycerol was measured for radioactivity. In detail, to a reaction buffer (175 mM Tris-HCl, pH 8.0, 20 μl bovine serum albumin (10 mg/ml), 100 mM MgCl2, 30 μM [^14C] palmitoyl-CoA (0.02 μCi, Amersham) and 200 μM 1,2-dioleoyl glycerol) was added 10 μl of a solution of the samples in dimethylsulfoxide (DMSO) and then 100˜200 μl of an isolated microsomal protein, followed by reaction at 25° C. for 10 min. The reaction was terminated with 1.5 ml of a mixture of 80:20:2 2-propanol:heptane:water (v:v:v). Thereafter, the [^14C] triacylglycerol thus formed was separated. In this regard, 1 ml of heptane and 0.5 ml of distilled water were added to the reaction mixture, which was then shaken. 1 ml of the supernatant thus formed was mixed with 2 ml of an alkaline ethanol solution (ethanol:0.5 N sodium hydroxide:water=50:10:40, v:v:v), followed by shaking. After being taken, 0.65 ml of the supernatant thus formed was measured for radioactivity using an LSC (liquid scintillation counter). The inhibitory activity against DGAT was calculated according to the following Mathematical Formula 1. The inhibitory effects of the benzazole derivatives on DGAT are summarized in Table 2, below while % DGAT inhibition is plotted against doses of compound 22 and 31 in FIG. 1.
T: Cpm of a test group in which a sample was added to an enzymatic buffer,
C: Cpm of a control in which no samples were added to an enzymatic buffer,
B: Cpm of a control in which a sample was added in the absence of any enzyme source.

[3] = system: SPF ICR mice; experiment: Acute toxicity, single oral dose of 2,000 mg/kg, mice; format: in vivo
Description: In addition, the compounds of the present invention were orally administered once at a dose of as high as 2,000 mg/kg into mice. In this regard, 7-week-old male SPF ICR mice (Dae Han Biolink Co. Ltd.) were acclimated to a new environment for one week and they, thus 8 weeks old, were divided into two groups of three. The test group was orally administered once with a dose of 2 g/kg of Compound 10 in a 0.5% CMC solution, while the control was administered with a 0.5% CMC (carboxymethyl cellulose) solution alone. They were monitored for death, clinical signs, change in body weight and the like for a couple of weeks. Autopsies were performed to examine the abnormality of organs.
Therefore, the compounds of the present invention exert no oral acute toxicity on mice even when administered once at a dose of up to 2,000 mg/kg.

[4] = system: ICR mice fed a high-fat diet; experiment: In vivo assay for anti-obesity activity in mice fed a high-fat diet; design: species or system mouse; conditions: high-fat diet
Description: Also, the derivatives of Chemical Formula 1 were tested for resistance to obesity by iterative oral administration at a dose of 10 mg/kg into ICR male mice (refer to Example 3). […] When they were administered, the levels of total triglycerides, total cholesterols, and low density lipoprotein (LDL)-cholesterol in the blood recovered to almost normal levels, with a significant increase observed in the level of high density lipoprotein (HDL)-cholesterol in the blood (refer to Tables 6 and 7 and FIGS. 3 and 4).
In order to verify the anti-obesity activity of the benzaldehyde derivatives of Chemical Formula 1 in accordance with the present invention, Compounds 22 and 31 were administered repetitively into rodents as follows.
The experimental animals were 6 week old ICR mice which were purchased from Japan SLC, Inc. via Central Lab. Animal Inc. Korea. They were acclimated to a new environment for one week before use, and fed with a foodstuff commercially available from Deyts, U.S.A. They were bred in an animal lab set at a temperature of 23±3° C. and RH 50±10% under light of 150˜300 Lux for a period of 12 hours (6 a.m.˜6 p.m.) with ventilation 10-20 times/hour. All of the 12 mice used were male, and were organized into two groups of 6. The test group was orally administered once a day at 4 p.m. with 10 mg/kg of the compound (Chemical Formula 1) in the form of a solution in biological saline for 35 days while the control was administered with biological saline only. Xenical, a commercially available lipase inhibitor, was administered orally at a dose of 10 mg/kg once a day as a positive control drug.
The animals were measured for body weight every week and sacrificed on Day 35, after which blood from the heart was sampled. Abdominal fat, epididymal fat, retroperitoneal fat and the liver were excised and weighed. Blood samples were assayed for total triglyceride, total cholesterol, HDL-cholesterol and LDL-cholesterol using respective test kits, all commercially available from Asan Pharmaceutical Co. Ltd., Korea.
For evidence of anti-obesity activity, compounds 22 and 31 were orally administered at regular intervals at a dose of 10 mg/kg into ICR male mice for a predetermined period of time with the concurrent provision of conditional diets thereto. Anatomized abdomens of the animals are given in the photographs of FIG. 2.

[5] = Day 35, 10 mg/kg oral, Mean ± SD
[6] = blood, Day 35, 10 mg/kg oral, Mean ± SD

`COC(=O)c1ccc2[nH]c(COc3ccc(C45CC6CC(CC(C6)C4)C5)cc3)nc2c1` [Cpd. 4, 2-(4-adamantan-1-yl-phenoxymethyl)-1H-benzoimidazole-5-carboxylic acid methyl ester] was tested, and the “Production Yield of Triglyceride (%)” value [1] was 72.2 ± 7.5% and the “DGAT (% inhibition in 25 μM)” value [2] was 60.43%.
For `COC(=O)c1ccc2[nH]c(COc3ccc(C(C)(C)C)cc3C(C)(C)C)nc2c1` [Cpd. 8, 2-(2,4-tert-butyl-phenoxymethyl)-1H-benzoimidazole-5-carboxylic acid methyl ester], the “Production Yield of Triglyceride (%)” value [1] was 88.5 ± 5.8% and the “DGAT (% inhibition in 25 μM)” value [2] was 37.36%.
In the case of `NS(=O)(=O)c1ccc2oc(COc3ccc(Cl)cc3Cl)nc2c1` [Cpd. 10, 2-(2,4-dichloro-phenoxymethyl)-benzoxazole-5-sulfonic acid amide], the “Production Yield of Triglyceride (%)” value [1] is reported as 98.7 ± 6.3%, the “DGAT (% inhibition in 25 μM)” value [2] is reported as 17.43% and the Mortality ([3]; single oral 2 g/kg in 0.5% CMC, No. of Dead/No of Tested) is reported as 0/3. The “Body Weight (g) Day 0” value ([3]; single oral 2 g/kg, Day 0, Mean ± SD) was 35 ± 0.5 g, the “Body Weight (g) Day 1” value ([3]; single oral 2 g/kg, Day 1, Mean ± SD) was 37 ± 0.5 g and the “Body Weight (g) Day 3” value ([3]; single oral 2 g/kg, Day 3, Mean ± SD) was 37 ± 0.6 g. For the same molecule, the “Body Weight (g) Day 7” value ([3]; single oral 2 g/kg, Day 7, Mean ± SD) was 39 ± 1.6 g and the “Body Weight (g) Day 14” value ([3]; single oral 2 g/kg, Day 14, Mean ± SD) was 42 ± 0.8 g.
For `O=C(NCCN1CCCCC1)c1ccc2oc(COc3ccc(C45CC6CC(CC(C6)C4)C5)cc3)nc2c1` [Cpd. 24, 2-(4-adamantan-1-yl-phenoxymethyl)-benzoxazole-5-carboxylic acid (2-piperidin-1-yl-ethyl)-amide], the “Production Yield of Triglyceride (%)” value [1] was 78.5 ± 6.2% and the “DGAT (% inhibition in 25 μM)” value [2] was 52.84%.
In the case of `O=C(NCCCN1CCOCC1)c1ccc2oc(COc3ccc(C45CC6CC(CC(C6)C4)C5)cc3)nc2c1` [Cpd. 25, 2-(4-adamantan-1-yl-phenoxymethyl)-benzoxazole-5-carboxylic acid (3-morpholin-4-yl-propyl)-amide], the “Production Yield of Triglyceride (%)” value [1] is reported as 80.2 ± 7.8% and the “DGAT (% inhibition in 25 μM)” value [2] is reported as 54.08%.
In the case of `O=C(NCc1ccco1)c1ccc2oc(COc3ccc(Cl)cc3Cl)nc2c1` [Cpd. 26, 2-(2,4-dichloro-phenoxymethyl)-benzoxazole-5-carboxylic acid (furan-2-ylmethyl)-amide], the “Production Yield of Triglyceride (%)” value [1] is reported as 91.5 ± 5.2% and the “DGAT (% inhibition in 25 μM)” value [2] is reported as 19.75%.
For `CN(C)C(=O)c1ccc2nc(COc3ccc(C45CC6CC(CC(C6)C4)C5)cc3)[nH]c2c1` [Cpd. 30, 2-(4-adamantan-1-yl-phenoxymethyl)-3H-benzoimidazole-5-carboxylic acid dimethylamide], the “Production Yield of Triglyceride (%)” value [1] was 87.2 ± 7.4%, the “DGAT (% inhibition in 5 μM)” value [2] was 8.0% and the “DGAT (% inhibition in 25 μM)” value [2] was 41.8%.
`O=C(NCc1ccco1)c1ccc2[nH]c(COc3ccc(C45CC6CC(CC(C6)C4)C5)cc3)nc2c1` [Cpd. 31, 2-(4-adamantan-1-yl-phenoxymethyl)-1H-benzoimidazole-5-carboxylic acid (furan-2-ylmethyl)-amide] was tested, and the “inhibition of the biosynthesis of triglycerides” value ([1]; 10 μM) was 42.2%, the “Production Yield of Triglyceride (%)” value [1] was 57.8 ± 5.3% and the “DGAT (% inhibition in 5 μM)” value [2] was 62.5%. The “DGAT (% inhibition in 25 μM)” value [2] was 85.4%, the “(Tissue Weight/Body Weight) × 100 Abdominal Fat + Epididymal Fat” value [4, 5] was 3.16 ± 0.84 and the “(Tissue Weight/Body Weight) × 100 Liver” value [4, 5] was 4.48 ± 0.33. The “(Tissue Weight/Body Weight) × 100 Retroperitoneal Fat” value [4, 5] was 0.94 ± 0.24, the “(Tissue Weight/Body Weight) × 100 Total Fat” value [4, 5] was 4.1 ± 1.03 and the “HDL-Cholesterol” value [4, 6] was 21.22 ± 2.19 mg/dL. For the same molecule, the “LDL-Cholesterol” value [4, 6] was 43.62 ± 10.06 mg/dL, the “Total Cholesterol” value [4, 6] was 73.19 ± 10.97 mg/dL and the “Total Triglyceride” value [4, 6] was 41.79 ± 9.26 mg/dL. For the same molecule, the “inhibition of body weight gain” value ([4]; 10 mg/kg oral once a day for 35 days) was 73%, the “Body Weight (g) (Mean ± SD) Week 0” value ([4]; 10 mg/kg oral once a day, Week 0) was 25.08 ± 0.99 g and the “Body Weight (g) (Mean ± SD) Week 1” value ([4]; 10 mg/kg oral once a day, Week 1) was 35.1 ± 1.99 g. The “Body Weight (g) (Mean ± SD) Week 2” value ([4]; 10 mg/kg oral once a day, Week 2) was 38.93 ± 2.33 g, the “Body Weight (g) (Mean ± SD) Week 3” value ([4]; 10 mg/kg oral once a day, Week 3) was 40.75 ± 1.75 g and the “Body Weight (g) (Mean ± SD) Week 4” value ([4]; 10 mg/kg oral once a day, Week 4) was 42.31 ± 1.57 g. For the same molecule, the “Body Weight (g) (Mean ± SD) Week 5” value ([4]; 10 mg/kg oral once a day, Week 5) was 43.22 ± 1.41 g.
In the case of `O=C(NCc1ccco1)c1ccc2nc(COc3ccc(Cl)cc3Cl)[nH]c2c1` [compound 35, 2-(2,4-dichloro-phenoxymethyl)-3H-benzoimidazole-5-carboxylic acid (furan-2-ylmethyl)-amide], the “DGAT (% inhibition in 25 μM)” value [2] is reported as 28.63%.

From US8304448B2, “Method for the treatment of metabolic disorder containing benzazole derivatives as an active ingredient” (Korea Research Institute of Bioscience and Biotechnology, priority 2006, dated 2012)
